Reference: patent US8426437B2, “Pyrroloquinoline derivatives and their use as protein kinases inhibitors” (Pierre Fabre Medicament, priority 2005, dated 2013)

How the values were obtained:
Assay type in all cases: biochemical
[1] = biological target: T1, Aurora-A (h) (Homo sapiens, UniProt O14965); assay: Upstate kinase panel: Aurora-A
T1 construct: purchased Upstate
T1 sequence (O14965 1-403): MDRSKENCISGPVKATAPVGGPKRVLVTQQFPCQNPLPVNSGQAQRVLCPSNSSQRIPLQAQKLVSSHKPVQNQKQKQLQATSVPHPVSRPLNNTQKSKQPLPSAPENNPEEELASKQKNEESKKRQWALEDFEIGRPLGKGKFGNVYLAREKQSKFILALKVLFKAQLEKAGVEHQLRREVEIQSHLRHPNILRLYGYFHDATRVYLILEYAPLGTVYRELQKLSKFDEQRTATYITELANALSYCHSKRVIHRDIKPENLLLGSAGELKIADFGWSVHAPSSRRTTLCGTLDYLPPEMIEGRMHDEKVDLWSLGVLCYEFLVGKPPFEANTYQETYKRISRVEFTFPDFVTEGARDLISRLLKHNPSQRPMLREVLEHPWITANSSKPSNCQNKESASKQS
Description: (§1) These kinases are produced by Upstate and screened according to the respective protocols indicated by the supplier (http://www.upstate.com/features/kp_protocols.asp). Examples 1, 12, 166 and 238 were tested at a concentration of 20 μM, 10 μM, 1 μM and 1 μM respectively in the presence of 10 μM of ATP for examples 1 and 12 and at the concentrations of ATP shown in parentheses for examples 166 and 238. The results shown in Table VII correspond to percentage inhibition of the kinase tested in the presence of the compound, relative to a control effected without the compound.

[2] = biological target: T2, cKit (h) (Homo sapiens, UniProt P10721); assay: Upstate kinase panel: cKit
T2 construct: purchased Upstate
Description: as §1

[3] = biological target: T3, Flt3 (h) (Homo sapiens, UniProt P36888); assay: Upstate kinase panel: Flt3
T3 construct: purchased Upstate
T3 sequence (P36888 27-993): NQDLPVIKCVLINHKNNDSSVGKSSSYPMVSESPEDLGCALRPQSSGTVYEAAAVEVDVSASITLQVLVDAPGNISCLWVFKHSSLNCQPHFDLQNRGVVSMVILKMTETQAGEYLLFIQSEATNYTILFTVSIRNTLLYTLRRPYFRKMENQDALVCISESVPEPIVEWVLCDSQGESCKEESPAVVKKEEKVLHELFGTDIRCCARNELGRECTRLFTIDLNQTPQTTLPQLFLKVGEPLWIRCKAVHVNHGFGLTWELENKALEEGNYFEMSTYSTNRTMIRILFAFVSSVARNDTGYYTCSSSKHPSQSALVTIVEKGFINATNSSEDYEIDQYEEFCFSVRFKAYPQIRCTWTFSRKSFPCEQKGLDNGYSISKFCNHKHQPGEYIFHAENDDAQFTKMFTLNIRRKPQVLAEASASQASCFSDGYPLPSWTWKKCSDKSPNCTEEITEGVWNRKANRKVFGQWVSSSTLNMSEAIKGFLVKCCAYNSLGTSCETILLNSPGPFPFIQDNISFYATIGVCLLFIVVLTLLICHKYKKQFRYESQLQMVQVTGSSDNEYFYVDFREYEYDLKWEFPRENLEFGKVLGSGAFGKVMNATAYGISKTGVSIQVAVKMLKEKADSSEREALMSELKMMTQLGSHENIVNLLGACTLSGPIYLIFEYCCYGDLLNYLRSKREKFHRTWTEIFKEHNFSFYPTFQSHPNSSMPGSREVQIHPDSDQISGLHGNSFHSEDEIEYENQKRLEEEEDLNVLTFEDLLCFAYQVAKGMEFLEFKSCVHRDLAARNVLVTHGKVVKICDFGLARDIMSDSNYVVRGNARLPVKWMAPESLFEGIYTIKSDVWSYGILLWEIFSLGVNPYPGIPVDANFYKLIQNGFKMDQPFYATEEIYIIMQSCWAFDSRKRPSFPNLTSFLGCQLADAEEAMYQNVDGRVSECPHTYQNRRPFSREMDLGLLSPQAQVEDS
Description: as §1

[4] = biological target: T4, IKKβ (h) (Homo sapiens, UniProt O14920); assay: Upstate kinase panel: IKKβ
T4 construct: purchased Upstate
T4 sequence (O14920 1-756): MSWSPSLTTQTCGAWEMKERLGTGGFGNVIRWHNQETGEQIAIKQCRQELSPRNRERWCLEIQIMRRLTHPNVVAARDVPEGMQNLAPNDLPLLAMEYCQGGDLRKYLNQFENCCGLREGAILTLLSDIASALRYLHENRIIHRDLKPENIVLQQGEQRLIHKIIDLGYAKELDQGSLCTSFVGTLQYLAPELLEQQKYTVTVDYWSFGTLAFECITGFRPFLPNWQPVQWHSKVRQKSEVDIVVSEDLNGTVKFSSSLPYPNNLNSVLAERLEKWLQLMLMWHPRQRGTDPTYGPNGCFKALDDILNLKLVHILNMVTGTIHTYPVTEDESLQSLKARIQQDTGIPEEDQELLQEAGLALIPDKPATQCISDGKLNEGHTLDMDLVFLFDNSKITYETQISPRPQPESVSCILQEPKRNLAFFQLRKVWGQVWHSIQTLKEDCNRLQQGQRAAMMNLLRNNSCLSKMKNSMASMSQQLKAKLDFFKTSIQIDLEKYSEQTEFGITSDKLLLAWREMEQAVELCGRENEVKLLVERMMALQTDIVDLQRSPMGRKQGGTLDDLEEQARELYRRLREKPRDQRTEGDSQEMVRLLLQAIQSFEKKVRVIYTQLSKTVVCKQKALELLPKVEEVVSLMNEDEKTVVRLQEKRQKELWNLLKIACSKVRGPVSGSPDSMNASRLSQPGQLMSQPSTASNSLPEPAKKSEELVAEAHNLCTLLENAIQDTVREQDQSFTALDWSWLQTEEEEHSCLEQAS
Description: as §1

[5] = biological target: T5, KDR (h) (Homo sapiens, UniProt P35968); assay: Upstate kinase panel: KDR
T5 construct: purchased Upstate
Description: as §1

[6] = biological target: T6, PKBγ (h) (Homo sapiens, UniProt Q9Y243); assay: Upstate kinase panel: PKBγ
T6 construct: purchased Upstate
Description: as §1

[7] = compound 1 μM, ATP (200), read-out: % inhibition at 1 μMol
[8] = compound 20 μM, 10 μM ATP, read-out: % inhibition at 20 μMol
[9] = compound 10 μM, 10 μM ATP, read-out: % inhibition at 10 μMol

T6 sequence (Q9Y243 whole entry): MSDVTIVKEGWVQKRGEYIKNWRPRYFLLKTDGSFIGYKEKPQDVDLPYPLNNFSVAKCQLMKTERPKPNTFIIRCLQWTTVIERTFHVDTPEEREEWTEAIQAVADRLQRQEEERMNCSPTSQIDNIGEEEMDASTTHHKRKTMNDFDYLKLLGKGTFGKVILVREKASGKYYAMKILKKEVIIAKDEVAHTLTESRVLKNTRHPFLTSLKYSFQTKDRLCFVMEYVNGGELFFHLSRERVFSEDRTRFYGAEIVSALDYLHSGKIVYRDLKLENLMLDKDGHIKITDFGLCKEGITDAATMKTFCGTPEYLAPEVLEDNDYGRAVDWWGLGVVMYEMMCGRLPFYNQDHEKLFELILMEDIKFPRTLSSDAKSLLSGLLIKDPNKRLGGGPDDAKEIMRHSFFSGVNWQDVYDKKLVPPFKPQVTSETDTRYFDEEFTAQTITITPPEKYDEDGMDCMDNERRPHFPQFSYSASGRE
T2 sequence (P10721 26-976): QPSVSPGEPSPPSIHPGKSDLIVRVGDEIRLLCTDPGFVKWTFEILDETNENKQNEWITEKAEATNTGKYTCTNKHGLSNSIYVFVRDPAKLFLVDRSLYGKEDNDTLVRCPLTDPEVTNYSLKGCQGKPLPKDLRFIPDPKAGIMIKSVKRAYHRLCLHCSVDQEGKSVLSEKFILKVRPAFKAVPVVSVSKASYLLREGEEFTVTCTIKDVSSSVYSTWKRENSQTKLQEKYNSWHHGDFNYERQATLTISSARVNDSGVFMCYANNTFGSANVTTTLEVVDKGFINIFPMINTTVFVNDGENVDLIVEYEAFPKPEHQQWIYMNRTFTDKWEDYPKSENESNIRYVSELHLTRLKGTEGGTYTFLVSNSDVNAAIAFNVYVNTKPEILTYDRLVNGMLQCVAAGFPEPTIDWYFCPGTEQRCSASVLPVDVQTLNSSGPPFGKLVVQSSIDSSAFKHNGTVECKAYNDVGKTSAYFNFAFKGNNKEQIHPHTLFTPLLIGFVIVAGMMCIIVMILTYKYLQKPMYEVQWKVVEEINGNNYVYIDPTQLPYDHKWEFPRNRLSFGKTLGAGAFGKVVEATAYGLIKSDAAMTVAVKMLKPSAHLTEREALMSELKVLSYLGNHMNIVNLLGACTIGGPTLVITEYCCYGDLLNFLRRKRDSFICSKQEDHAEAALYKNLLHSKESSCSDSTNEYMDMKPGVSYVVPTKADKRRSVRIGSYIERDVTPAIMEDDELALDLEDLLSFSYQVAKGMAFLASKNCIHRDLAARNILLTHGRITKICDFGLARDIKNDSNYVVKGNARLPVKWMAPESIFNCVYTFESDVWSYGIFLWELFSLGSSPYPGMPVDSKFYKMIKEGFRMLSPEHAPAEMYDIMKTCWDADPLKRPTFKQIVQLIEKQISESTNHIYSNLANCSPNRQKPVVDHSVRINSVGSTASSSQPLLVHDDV
T5 sequence (P35968 20-1356): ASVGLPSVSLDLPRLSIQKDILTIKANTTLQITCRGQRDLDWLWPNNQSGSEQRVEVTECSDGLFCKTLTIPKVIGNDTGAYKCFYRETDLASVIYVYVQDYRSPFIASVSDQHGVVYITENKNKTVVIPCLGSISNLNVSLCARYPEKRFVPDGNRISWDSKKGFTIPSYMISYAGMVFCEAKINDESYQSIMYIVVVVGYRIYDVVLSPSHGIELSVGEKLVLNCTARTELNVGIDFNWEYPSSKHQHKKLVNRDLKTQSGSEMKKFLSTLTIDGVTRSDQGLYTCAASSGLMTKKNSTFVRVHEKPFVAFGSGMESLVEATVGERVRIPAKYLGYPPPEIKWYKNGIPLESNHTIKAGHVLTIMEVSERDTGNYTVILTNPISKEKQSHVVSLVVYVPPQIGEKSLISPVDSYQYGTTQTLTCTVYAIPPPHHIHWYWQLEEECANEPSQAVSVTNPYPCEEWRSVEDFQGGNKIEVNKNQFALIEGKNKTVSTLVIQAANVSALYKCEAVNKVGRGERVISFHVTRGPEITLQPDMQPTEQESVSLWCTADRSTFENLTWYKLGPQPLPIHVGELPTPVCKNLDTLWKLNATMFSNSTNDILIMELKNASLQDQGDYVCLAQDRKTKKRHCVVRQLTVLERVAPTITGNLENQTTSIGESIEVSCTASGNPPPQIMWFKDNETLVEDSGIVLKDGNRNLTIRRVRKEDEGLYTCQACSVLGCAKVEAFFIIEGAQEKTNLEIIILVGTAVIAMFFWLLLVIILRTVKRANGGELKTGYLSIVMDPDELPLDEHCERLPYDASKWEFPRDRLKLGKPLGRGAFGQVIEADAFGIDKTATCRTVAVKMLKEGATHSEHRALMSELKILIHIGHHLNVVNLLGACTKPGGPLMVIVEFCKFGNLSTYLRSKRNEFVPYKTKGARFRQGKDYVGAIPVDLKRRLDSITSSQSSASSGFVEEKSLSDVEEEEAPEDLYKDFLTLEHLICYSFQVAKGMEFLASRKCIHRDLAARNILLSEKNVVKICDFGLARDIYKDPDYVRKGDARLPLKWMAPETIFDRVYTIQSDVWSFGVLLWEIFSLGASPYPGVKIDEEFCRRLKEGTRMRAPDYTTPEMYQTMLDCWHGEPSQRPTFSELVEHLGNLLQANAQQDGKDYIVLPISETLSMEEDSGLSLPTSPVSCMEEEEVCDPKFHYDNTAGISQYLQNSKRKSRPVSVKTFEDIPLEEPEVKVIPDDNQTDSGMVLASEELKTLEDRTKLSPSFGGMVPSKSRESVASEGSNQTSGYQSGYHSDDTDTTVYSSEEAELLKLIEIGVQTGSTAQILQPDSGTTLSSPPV

Compound CCOC(=O)c1c[nH]c2c(=O)[nH]c3ccc(-c4cccc(S(C)(=O)=O)c4)cc3c12 [Compound 238, 8-(3-Methanesulfonyl-phenyl)-4-oxo-4,5-dihydro-3H-pyrrolo[2,3-c]quinoline-1-ethyl carboxylate] has an inhibition at 1 µM ([1]; compound 1 μM, ATP (15), read-out: % inhibition at 1 μMol) of 24%, an inhibition at 1 µM [2, 7] of 4% and an inhibition at 1 µM [3, 7] of 0%. For the same compound, the inhibition at 1 µM ([4]; compound 1 μM, ATP (10), read-out: % inhibition at 1 μMol) was 0%, the inhibition at 1 µM ([5]; compound 1 μM, ATP (90), read-out: % inhibition at 1 μMol) was 21% and the inhibition at 1 µM [6, 7] was 2%.

With CCOC(=O)c1c[nH]c2c(=O)[nH]c3ccccc3c12 [Compound 1, 4-Oxo-4,5-dihydro-3H-pyrrolo[2,3-c]quinoline-1-ethyl carboxylate] the inhibition at 20 µM [1, 8] was 16%, the inhibition at 20 µM [2, 8] was 20% and the inhibition at 20 µM [3, 8] was 91%. It also gave an inhibition at 20 µM [4, 8] of 22%, an inhibition at 20 µM [5, 8] of 100% and an inhibition at 20 µM [6, 8] of 5%.

Work on CCOC(=O)c1c[nH]c2c(=O)[nH]c3ccc(S(=O)(=O)Nc4ccc(F)cc4)cc3c12 [Compound 12, 8-(4-Fluorophenylsulfamoyl)-4-oxo-4,5-dihydro-3H-pyrrolo[2,3-c]quinoline-1-ethyl carboxylate] yielded an inhibition at 10 µM [1, 9] of 94%, an inhibition at 10 µM [2, 9] of 45% and an inhibition at 10 µM [3, 9] of 51%. The inhibition at 10 µM [4, 9] was 0%, the inhibition at 10 µM [5, 9] was 69% and the inhibition at 10 µM [6, 9] was 20%.
